Consider 1 substance from patent publication US9018188B2, “MicroRNA inhibitors” (Ottawa Hospital Research Institute, priority 2011, dated 2015).

The subject of one data set is miR-133a and miR-133b. Put plainly: RT-qPCR of miR-133 expression after intramuscular ASO injection. The class given is in vivo, mouse. The source says:
(§1) To investigate miR-133 function in brown adipose determination of satellite cells in vivo, Applicant synthesized miR-133 antagomiR (miR-133 antisense oligonucleotide (ASO)) with an antisense sequence to both miR-133a and miR-133b, as well as a control “antagomiR” (control ASO) with the same chemical modifications and not antisense to any mouse gene or EST sequence (see Experimental Procedures). Applicant performed lineage tracing to distinguish effects of miR-133 ASO on satellite cells versus other cell types. Six week old Pax7-CreER; R26R-tdTomato mice were treated with tamoxifin as before (5 consecutive daily injections), then aged to 10 weeks of age prior to initiating the experiment. Control ASO versus miR-133 ASO were injected into tibialis anterior (TA) muscles 3 days following saline injection (quiescent state) or cardiotoxin injection (to induce activation). After one month, RT-qPCR was performed using RNA isolated from several tissues to evaluate the efficacy and scope of miR-133 ASO administration.
(§2) To induce brown adipocytes in vivo, 10 mg/mL Cardiotoxin solution (50 μl) was intramuscularly injected into TA muscles of 10-week old Pax7-CreER/R26R-tdTomato mice (FIG. 4) or C57BL/6 mice (FIG. 5 and FIG. 6). Alternatively, frozen injury was performed by applying liquid nitrogen cooled tweezers tips directly onto the anterior sides of TA muscles. After 3 days, 20 μg of miR-133 antagomiR or control antagomiR in saline (50 μl) was intramuscularly injected into the same injured TA muscles (on right hindlimbs). To test efficacy of miR-133 ASO in intact muscles, saline, instead of Cardiotoxin, was injected to TA muscles before miR-133 ASO administration (FIGS. 4A, 4B). miR-133 antagomiR and scramble antagomiR were designed as previously described (Krutzfeldt et al., 2005).
Total RNA was extracted from cells by TRIzol or Arcturus® PicoPure® RNA Isolation Kit (Applied Biosystems) following manufactures' recommendations. […]
In general terms: Quantitative PCR measures a nucleic acid by following its amplification.

The test system of data set [1] is Ucp1. Put plainly: Induction of Ucp1 and brown adipocytes in TA muscle (RT-qPCR, immunoblot, immunofluorescence, IHC). The class given is in vivo, mouse.
Source text: as §1
To investigate whether miR-133 ASO was inducing satellite cells to undergo brown adipose determination in vivo, Applicant performed immunofluorescence microscopy on cross-sections prepared from regenerating TA muscles treated with control- or miR-133 ASO (FIG. 4C-D) Staining for Ucp1 and basal lamina-located Laminin confirmed Ucp1 staining only within miR-133 ASO treated regenerating muscles. […] In addition, Applicant observed that these interstitial cells were immunoreactive to Perilipin A, a marker for differentiated adipocytes, and nuclear Prdm16 (FIG. 4D).
as §2
The following antibodies and dilutions were used: anti-MyHC antibody (MF20, Developmental Studies Hybridoma Bank), 1:20 dilution; anti-Prdm16 antibody (generated in Dr. Patrick Seale's laboratory), 1:1,000 dilution; anti-Perilipin A antibody (Vala Sciences), 1:500 dilution; anti-Ucp1 antibody (Calbiochem), 1:200 dilution; anti-Laminin B2 antibody (Upstate), 1:500 dilution.
(§3) The following antibodies and dilutions were used: anti-Prdm16 antibody (generated in Dr. Patrick Seale's laboratory), 1:5,000 dilution; anti-Perilipin A antibody (Vala Sciences), 1:5,000 dilution; anti-Ucp1 antibody (Ab10983, Abeam), 1:1,000 dilution (FIGS. 4B, 5A, 7A); anti-Ucp1 antibody (Calbiochem), 1:1,000 dilution (FIG. 8C); anti-Ucp3 antibody (Ab3477, Abeam), 1:1,000 dilution; anti-Pgc1α antibody (Abeam), 1:1,000 dilution; anti-pan myosin heavy chain (MyHC) antibody (Developmental Studies Hybridoma Bank), 1:500; anti-DsRed (tdTomato) antibody (Ablab), 1:500; anti-α-Tubulin antibody (Sigma-Aldrich), 1:10,000 dilution.
Paraffin embedded tissue sections of TA muscles, inguinal white fat depots (igWAT) and epididymal white fat depots (epiWAT) were deparaffinized in CitriSolv. After rehydration, tissue sections were boiled in 0.01M citrate buffer (1.8 mM citric acid, 8.2 mM sodium citrate, pH 6.0) for 16 minutes. Endogenous peroxidase activity was neutralized by 0.3% H2O2 in 70% methanol Anti-Ucp1 antibody (Calbiochem) was 1:200 diluted and incubated with tissues sections overnight. IHC signals were developed by Vectastain ABC kit. […]

A further data set relates to Ucp3. Put plainly: Immunoblot of Ucp3 in TA muscle after ASO injection. It is filed as in vivo, mouse. As to conditions: TA muscles.
Source text: as §1
To induce brown adipocytes in vivo, 10 mg/mL Cardiotoxin solution (50 μl) was intramuscularly injected into TA muscles of 10-week old Pax7-CreER/R26R-tdTomato mice (FIG. 4) or C57BL/6 mice (FIG. 5 and FIG. 6). Alternatively, frozen injury was performed by applying liquid nitrogen cooled tweezers tips directly onto the anterior sides of TA muscles. […]
(In general: In western blotting, separated proteins are transferred to a membrane and probed.)

The nature of data set [2]: Body weight and fat depot weights after ASO treatment during TA muscle regeneration. The class given is in vivo, mouse. The method, then: Treated and control C57BL/6 male mice were raised on either RD or HFD in individual cages at 22° C. (n=5 per treatment per diet group). In both diet groups, miR-133 ASO treated mice were obviously leaner than the control mice at 4-month after treatment (FIG. 6A).
as §2

Data set [3] deals with epididymal white fat depots and liver. Description: H/E staining of fat depots and liver. The class given is in vivo, mouse. As to conditions: mice fed the HFD. The text has this:
This discrepancy may be related to the abnormally low respiratory exchange ratio (˜0.76) in the control mice fed with HFD (FIG. 7D), which indicates an increased proportion of lipid oxidation in the control mice. […] In addition, miR-133 ASO treatment also led to much improved glucose tolerance in both diet groups (FIGS. 6E & 7F).

Data set [4] deals with Ucp1. Description: UCP1 immunoblot in inguinal and epididymal white adipose tissues. The class given is in vivo, mouse. On the procedure:
Normalized UCP1 levels were calculated based on the densitometry analysis of the UCP1 immunoblot and the α-Tubulin immunoblot. The interscapular brown adipose tissue (iBAT) were included as a control. Asterisk denotes the loading of the iBAT lanes on the UCP1 immunoblot was 1/100 of other lanes to avoid overloading. (B) Immunohistochemistry (IHC) of UCP1 protein reveal miR-133 antagonism induced beige adipocytes within inguinal and epididymal white adipose tissues. […] Error bars: S.E.M., asterisk: significant pair-wise comparison by t-test, *: p≦0.05, **: p≦0.01, ***: p≦0.001.
as §3

A further data set deals with IL-1β and TNF-α. The conditions noted are these: mouse, in vivo.
The mark [5] stands for this setting: regenerating TA muscle cross-sections.

On to “*mA*mUmAmGmCmUmGmGmUmUmGmAmAmGmGmGmGmAmC*mC*mA*mA*mAChl [miR-133 ASO]”, for which the “miR-133a/b expression in the contralateral TA muscles” value with miR-133a and miR-133b (ASO injected into resting muscles) is “repressed”. The “miR-133 expression in the myocardium” value with miR-133a and miR-133b (intramuscular administration) was “unaffected”. In addition, the “miR-133a and miR-133b expression within the injected TA muscles” value in the data set on miR-133a and miR-133b (intramuscular, one month after injection, resting or regenerating muscle) is on record as “striking reduction”. In addition, the “repression of miR-133a/b and induction of Ucp1 mRNA, duration” value in the data set on Ucp1 [1] (3 months after a single injection in regenerating muscle) is “long-lasting effects”. Moreover, the “Ucp1 protein expression in treated muscles by immunoblotting” value with Ucp1 [1] (C57BL/6 mice, regular diet or high fat diet, 2 months after treatment) was “ectopically induced”. For the same substance, the “Ucp1 mRNA within injected regenerating muscle” value with Ucp1 [1] (cardiotoxin-injured TA muscle, one month) is given as “increased”. In the data set on Ucp1 [1] (frozen injury induced muscle regeneration), the “Ucp1 mRNA level in treated TA muscle” value is recorded as “similarly induced”. In addition, the “Ucp1 protein by immunoblotting” value in the data set on Ucp1 [1] (regenerated TA muscles, Pax7-CreER, R26R-tdTomato mice) was “specifically detected”. In addition, the “numbers of interstitial cells and ORO-stained cells between regenerating myofibers” value in the data set with Ucp1 [1] (regenerating TA muscle) was “markedly increased”. Further, in the data set on Ucp1 [1] (setting [5]), the “Prdm16pos cells per cross-section (average)” value stood at 31.6 per cross-section and the “Ucp1pos brown adipocytes per section (average)” value is reported as 15.6 per section. Besides, in the data set with Ucp1 [1] (tdTomato lineage tracing), the “share of Prdm16pos cells derived from satellite cells” value came out at 76.8% and the “share of Ucp1pos brown adipocytes derived from satellite cells” value amounted to 83.3%. Besides, in the data set on Ucp3, the “Ucp3 protein by immunoblotting” value was “largely unaffected”. In data set [2] (4-month period after ASO administration, RD or HFD, C57BL/6 male), the “gain in body weight” value is “reduced gain in body weight”. Further, in data set [2] (mouse, in vivo), the “igWAT and epiWAT weights” value is reported as “significant reduction”; the “mass of iBAT depots and treated TA muscles” value is “unaffected”. Also, in data set [3], the “infiltrating inflammatory cells in the epididymal white fat depots” value is reported as “reduced numbers” and the “steatosis of the liver” value was “reduced steatosis”. Besides, the “effect on UCP1 in white adipose tissues” value in the data set on Ucp1 [4] (C57BL/6 mice fed with a high fat diet (HFD)) was “not present”. The “UCP1 in inguinal and epididymal white adipose tissues” value with Ucp1 [4] (C57BL/6 mice fed with a regular diet (RD), CTX) is reported as “increase”. For the same substance, the “expression of IL-1β and TNF-α between control- and treated muscles” value in the data set with IL-1β and TNF-α was “no difference”.
